Tests used:
[1] = molecular target: T1, Steroid sulphatase (Steryl Sulphatase EC 3.1.6.2) (Homo sapiens, UniProt P08842); assay: Inhibition of steroid sulphatase activity in intact MCF-7 cells; format: cell-based; conditions: MCF7, read-out: % INHIBITION (mean ± S.D., n = 3) MCF-7 cells
T1 construct: endogenous in cells; host or cells: MCF-7 human breast cancer cells
T1 sequence (P08842 22-583): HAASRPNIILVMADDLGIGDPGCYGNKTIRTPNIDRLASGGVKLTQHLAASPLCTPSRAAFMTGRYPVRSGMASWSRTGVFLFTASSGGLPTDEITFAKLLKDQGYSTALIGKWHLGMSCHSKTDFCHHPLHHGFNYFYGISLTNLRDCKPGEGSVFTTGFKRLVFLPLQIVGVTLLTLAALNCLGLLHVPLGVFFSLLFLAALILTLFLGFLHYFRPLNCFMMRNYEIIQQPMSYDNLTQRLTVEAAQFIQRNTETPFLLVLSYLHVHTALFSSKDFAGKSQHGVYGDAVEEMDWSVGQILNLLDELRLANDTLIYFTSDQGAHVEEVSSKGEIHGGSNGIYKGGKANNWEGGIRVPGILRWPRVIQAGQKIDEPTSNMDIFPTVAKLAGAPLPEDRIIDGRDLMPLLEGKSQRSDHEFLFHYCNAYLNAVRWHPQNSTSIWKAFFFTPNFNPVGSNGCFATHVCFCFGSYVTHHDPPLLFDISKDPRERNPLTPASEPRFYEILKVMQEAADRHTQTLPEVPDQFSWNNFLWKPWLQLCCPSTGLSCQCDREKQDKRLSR
Procedure: (§1) In the examples reference is made to steroid sulphatase inhibition. This is determined according to the teachings of PCT/GB92/01587 wherein the ability of compounds to inhibit oestrone sulphatase activity is assessed using either intact MCF-7 breast cancer cells or placental microsomes. For ease of reference, those teachings are repeated here as Example 1.
Steroid sulphatase (Steroid sulphatase is defined as: Steryl Sulphatase EC 3.1.6.2.) activity was measured in vitro using intact MCF-7 human breast cancer cells. This hormone dependent cell line is widely used to study the control of human breast cancer cell growth. […] Cells were maintained in Minimal Essential Medium (MEM) (Flow Laboratories, Irvine, Scotland) containing 20 mM HEPES, 5% foetal bovine serum, 2 mM glutamine, non-essential amino acids and 0.075% sodium bicarbonate. Up to 30 replicate 25 cm^2 tissue culture flasks were seeded with approximately 1×10^5 cells/flask using the above medium. Cells were grown to 80% confluency and medium was changed every third day.
Intact monolayers of MCF-7 cells in triplicate 25 cm^2 tissue culture flasks were washed with Earle's Balanced Salt Solution (EBSS from ICN Flow, High Wycombe, U.K.) and incubated for 3-4 hours at 37° C. with 5 pmol (7×10^5 dpm) [6,7-^3H]oestrone-3-sulphate (specific activity 60 Ci/mmol from New England Nuclear, Boston, Mass., U.S.A.) in serum-free MEM (2.5 ml) together with oestrone-3-sulphamate (11 concentrations: 0; 1 fM; 0.01 pM; 0.1 pM; 1 pM; 0.01 nM; 0.1 nM; 1 nM; 0.01 mM; 0.1 mM; 1 mM). […] A portion (2 ml) of the organic phase was removed, evaporated and the ^3H and ^14C content of the residue determined by scintillation spectrometry. The mass of oestrone-3-sulphate hydrolysed was calculated from the ^3H counts obtained (corrected for the volumes of the medium and organic phase used, and for recovery of [^14C]oestrone added) and the specific activity of the substrate. […] The number of cell nuclei per flask was determined using a Coulter Counter after treating the cell monolayers with Zaponin. […]

[2] = molecular target: T2, Steroid sulphatase (oestrone sulphatase) (Homo sapiens, UniProt P08842); assay: Inhibition of steroid sulphatase activity in placental microsomes; format: biochemical; conditions: read-out: % INHIBITION (mean ± S.D., n = 3) PLACENTAL MICROSOMES
T2 construct: Sulphatase-positive human placenta from normal term pregnancies; from tissue; host or cells: human term placenta (2000 g supernatant / microsomes)
T2 sequence (P08842 22-583): T1 sequence (P08842 22-583)
Procedure: as §1
Sulphatase-positive human placenta from normal term pregnancies (Obstetric Ward, St. Mary's Hospital, London) were thoroughly minced with scissors and washed once with cold phosphate buffer (pH 7.4, 50 mM) then re-suspended in cold phosphate buffer (5 ml/g tissue). Homogenisation was accomplished with an Ultra-Turrax homogeniser, using three 10 second bursts separated by 2 minute cooling periods in ice. Nuclei and cell debris were removed by centrifuging (4° C.) at 2000 g for 30 minutes and portions (2 ml) of the supernatant were stored at −20° C. The protein concentration of the supernatants was determined by the method of Bradford (Anal. Biochem., 72, 248-254 (1976)).
Incubations (1 ml) were carried out using a protein concentration of […], substrate concentration of […] [6,7-^3H]oestrone-3-sulphate (specific activity 60 Ci/mmol from New England Nuclear, Boston, Mass., U.S.A.) and an incubation time of 20 minutes at 37° C. Eight concentrations of the compounds to be tested may be employed: 0 (i.e. control); 0.05 mM; 0.1 mM; 0.2 mM; 0.4 mM; 0.6 mM; 0.8 mM; 1.0 mM. After incubation each sample was cooled and the medium (1 ml) was pipetted into separate tubes containing [^14C]oestrone (7×10^3 dpm) (specific activity 97 Ci/mmol from Amersham International Radiochemical Centre, Amersham, U.K.). The mixture was shaken thoroughly for 30 seconds with toluene (5 ml). […] A portion (2 ml) of the organic phase was removed, evaporated and the ^3H and ^14C content of the residue determined by scintillation spectrometry. The mass of oestrone-3-sulphate hydrolysed was calculated from the ^3H counts obtained (corrected for the volumes of the medium and organic phase used, and for recovery of [^14C]oestrone added) and the specific activity of the substrate.

Rat Liver Sulphatase = molecular target: T3, Rat Liver Sulphatase (Rattus norvegicus, UniProt P15589); assay: In vivo inhibition (rat liver sulphatase); conditions: 2 mg/kg/d×5 ol, ORAL DOSE
T3 construct: from tissue; host or cells: rat liver after oral dosing
T3 sequence (P15589 20-577): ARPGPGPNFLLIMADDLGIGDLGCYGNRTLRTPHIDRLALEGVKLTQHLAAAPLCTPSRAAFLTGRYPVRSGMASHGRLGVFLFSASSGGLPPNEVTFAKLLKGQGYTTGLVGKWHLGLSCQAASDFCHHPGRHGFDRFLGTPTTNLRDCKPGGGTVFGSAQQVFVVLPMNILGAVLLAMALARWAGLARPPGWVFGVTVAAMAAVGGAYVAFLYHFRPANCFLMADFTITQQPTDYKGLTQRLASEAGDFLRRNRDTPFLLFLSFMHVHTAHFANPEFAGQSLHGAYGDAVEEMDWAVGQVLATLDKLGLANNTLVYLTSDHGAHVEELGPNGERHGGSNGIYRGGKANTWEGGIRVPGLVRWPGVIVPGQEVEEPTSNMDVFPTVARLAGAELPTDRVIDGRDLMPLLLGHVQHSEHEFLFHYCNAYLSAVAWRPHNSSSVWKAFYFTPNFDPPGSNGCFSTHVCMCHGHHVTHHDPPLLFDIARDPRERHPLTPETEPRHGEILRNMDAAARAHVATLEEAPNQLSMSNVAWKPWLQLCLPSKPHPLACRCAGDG
Procedure: In Vivo Inhibition (Rat Liver Sulphatase)
99.2±0.42%. @ 2 mg/kg/d×5 ol, ORAL DOSE.

uterine growth = assay: Measurement of estrogenic activity (uterine weight); format: in vivo; conditions: rats, oral, such as 0.1 mg/Kg/day for five days; uterine weight/whole body weight×100
Procedure: Compounds according to the present invention such as Compound 2 (such as at levels of 0.1 mg/Kg/day for five days) are administered orally to rats with another group of animals receiving vehicle only (propylene glycol). At the end of the study uteri are obtained and weighed with the results being expressed as uterine weight/whole body weight×100.

[3] = cited from earlier work
E1-STS enzyme = molecular target: T4, E1-STS enzyme (Homo sapiens, UniProt P08842); conditions: cited from earlier work
T4 sequence (P08842 22-583): T1 sequence (P08842 22-583)

[4] = molecular target: T1, Steroid sulphatase (Steryl Sulphatase EC 3.1.6.2); conditions: 0.1 μM; cited from earlier work
rat liver E1-STS = molecular target: T5, rat liver E1-STS (Rattus norvegicus, UniProt P15589); conditions: administered either orally or subcutaneously; cited from earlier work
T5 construct: host or cells: rat liver (in vivo)
T5 sequence (P15589 20-577): T3 sequence (P15589 20-577)

rat liver DHA-STS = molecular target: T6, rat liver DHA-STS (Rattus norvegicus, UniProt P15589); conditions: administered either orally or subcutaneously; cited from earlier work
T6 construct: host or cells: rat liver (in vivo)
T6 sequence (P15589 20-577): T3 sequence (P15589 20-577)

memory = conditions: rats; cited from earlier work

Work on C[C@]12CCC3c4ccc(OS(N)(=O)=O)cc4CCC3C1CCC2=NO (stereo partly shown) [Compound 2, Oestrone Oxime-3-O-sulphamate] yielded an inhibition at 0.1 µM ([1]; inhibitor concentration 0.1 μM) of 96 ± 1.8%, an inhibition at 1 µM ([1]; inhibitor concentration 1 μM) of 98 ± 0.6% and an inhibition at 10 µM ([1]; inhibitor concentration 10 μM) of 99 ± 0.2%. The inhibition at 0.0001 µM ([2]; inhibitor concentration 0.1 nM) was 2.9 ± 1.1%, the inhibition at 0.001 µM ([2]; inhibitor concentration 1 nM) was 8 ± 3.3% and the inhibition at 0.01 µM ([2]; inhibitor concentration 10 nM) was 19.3 ± 2.4%. It also gave an inhibition at 0.1 µM ([2]; inhibitor concentration 0.1 μM) of 52.3 ± 0.1%, an inhibition at 1 µM ([2]; inhibitor concentration 1 μM) of 89.8 ± 0.2% and an inhibition at 10 µM ([2]; inhibitor concentration 10 μM) of 98.7 ± 0.1%. The “In vivo inhibition (rat liver sulphatase)” value (Rat Liver Sulphatase) was 99.2±0.42% and the “Estrogenic activity: effect on uterine growth” value (uterine growth) was “has an effect on uterine growth”.
In the case of C[C@]12CC[C@@H]3c4ccc(OS(=O)(=O)O)cc4CC[C@H]3[C@@H]1CCC2=O [Compound E1S, oestrone sulphate], the half-life in blood [3] is given as 10 to 12 h.
For oestrone-3-N-sulphamate, the “mode of inhibition of the E1-STS enzyme” value (E1-STS enzyme) is listed as “weaker non-time-dependent inactivators”.
In the case of oestrone-3-S-sulphamate, the “mode of inhibition of the E1-STS enzyme” value (E1-STS enzyme) is given as “weaker non-time-dependent inactivators”.
For CC12CCC3c4ccc(OS(N)(=O)=O)cc4CCC3C1CCC2=O (stereo not shown) [EMATE, oestrone-3-sulphamate], the “inhibition of E1-STS activity in intact MCF-7 cells” value [4] is listed as “more than 99%”, the “inhibition of rat liver E1-STS activity” value (rat liver E1-STS) is listed as 99% and the “inhibition of rat liver DHA-STS activity” value (rat liver DHA-STS) is listed as 99%. The memory enhancing effect (memory) was “memory enhancing effect” and the “mode of inhibition of the E1-STS enzyme” value (E1-STS enzyme) was “time- and concentration-dependent manner”.

— US6670353B2, “Oxime-group containing oestrone sulphatase inhibitors” (Sterix Limited, priority 1997, dated 2003)
